Laboratory results taken from patent US20220378901A1, “APPLICATION OF PSEUDOMONAS AERUGINOSA VACCINE IN RESPIRATORY DISEASE” (Sichuan University, priority 2019, published 2022).

Key:
SKLBPA1 [1] = experiment: Efficacy against infection of vaccine alone or in combination with antibiotics; conditions: 24 h after infection; no immunization; ATM 4 times (2 h, 4 h, 6 h, 8 h, 100 mg/kg/time); Model 24 h 6.86 ± 0.45
Description: The mice in the immunization group are subcutaneously immunized with SKLB-V1 in the groin at 1×10^7 CFU/100 μL, with 3 injections. […] 24 h after the last immunization, the bacteria SKLBPA1 are used for challenge.

SKLBPA1 [2] = experiment: Immunoprotection against SKLBPA1 pulmonary infection; format: in vivo, Pseudomonas aeruginosa
Excerpt: . […] One week after the last immunization, SKLBPA1 (which is the homologous strain of vaccine bacteria) and clinical carbapenem-resistant Pseudomonas aeruginosa (CRPA) C58 (from sputum, the drug sensitivity information of clinical C58 is shown in Table 7, which is different from the serotype of vaccine bacteria) are used for challenge.

C[C@H]1[C@H](NC(=O)/C(=N\OC(C)(C)C(=O)O)c2csc(N)n2)C(=O)N1S(=O)(=O)O [Aztreonam, aztreonam]
Lung LOG10CFU (SKLBPA1 [1]): 4.11 ± 0.44 LOG10CFU
Bacterial Load log10CFU (SKLBPA1 [2]; in vivo): 4.31 ± 1.27 log10CFU
Bacterial Load log10CFU (SKLBPA1 [2]; mice lung tissue, 4 h after infection, SKLB-V1 1×10^7 CFU s.c. at 0, 1st, 2nd weeks, aztreonam 100 mg/kg i.p. from 2 h, model 4.50 ± 1.05): 4.68 ± 0.22 log10CFU
